Measured values reported in ChEMBL document CHEMBL4417631, “Oral peptide inhibitors of interleukin-23 receptor and their use to treat inflammatory bowel diseases” (2017).
*1 amine or outer side, *2 acyl side, *3 side chain or, on linkers, in order; H or OH if unused. Where a SMILES comes first, the peptide text is derived from it. Bridges are numbered along the chain shown (N, C = ends). [ ]: non-standard residue; d: D form. Abu(4-yl) = O=C([C@H](CC[*:3])N[*:1])[*:2]; 2Nal = N[C@@H](Cc1ccc2ccccc2c1)C(=O)O; AEF = NCCOc1ccc(C[C@H](N)C(=O)O)cc1; αMeK = C[C@](N)(CCCCN)C(=O)O

How the values were obtained:
[1] = target: T1, Interleukin-23 receptor (Homo sapiens, UniProt Q5VWK5); test: Inhibition of interleukin-23 receptor in human DB cells assessed as reduction in IL-23-stimulated STAT3 phosphorylation incubated for 30 mins by HTRF assay; format: cell-based
T1 sequence (Q5VWK5 whole entry): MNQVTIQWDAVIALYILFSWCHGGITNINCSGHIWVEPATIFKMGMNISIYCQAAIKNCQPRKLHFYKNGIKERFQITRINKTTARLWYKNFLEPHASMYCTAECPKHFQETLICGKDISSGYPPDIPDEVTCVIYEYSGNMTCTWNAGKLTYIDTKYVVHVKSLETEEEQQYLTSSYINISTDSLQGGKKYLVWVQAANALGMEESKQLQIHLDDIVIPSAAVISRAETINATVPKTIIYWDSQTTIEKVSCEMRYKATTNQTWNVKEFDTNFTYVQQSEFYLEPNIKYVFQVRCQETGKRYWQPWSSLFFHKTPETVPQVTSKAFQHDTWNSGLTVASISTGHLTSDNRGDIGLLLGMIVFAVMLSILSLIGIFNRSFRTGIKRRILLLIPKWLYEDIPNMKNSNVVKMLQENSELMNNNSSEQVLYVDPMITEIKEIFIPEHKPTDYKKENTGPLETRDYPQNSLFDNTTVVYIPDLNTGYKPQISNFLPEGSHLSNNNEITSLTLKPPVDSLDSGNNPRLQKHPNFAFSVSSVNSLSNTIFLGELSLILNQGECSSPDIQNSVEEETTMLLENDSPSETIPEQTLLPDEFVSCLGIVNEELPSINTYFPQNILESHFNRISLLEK

[2] = Half life in simulated intestinal fluid at 20 uM by LC-MS/MS analysis; format: ADME
[3] = target: T1, Interleukin-23 receptor; test: Inhibition of interleukin-23 binding to human interleukin-23 receptor incubated for 2 hrs by competitive binding ELISA
[4] = Inhibition of interleukin-23 binding to rat interleukin-23 receptor incubated for 2 hrs by competitive binding ELISA

Row | IC50 [1] | half-life at 20 µM [2] | IC50 [3] | IC50 [4] | SMILES
1 | < 0.01 µM | < 1 h | 0.01 to 0.025 µM | 0.025 to 0.1 µM | CC(=O)N[C@H]1CCSC[C@@H](C(=O)N[C@@H](Cc2ccc(O)cc2)C(=O)N[C@@H](Cc2c[nH]c3ccccc23)C(=O)N[C@@](C)(CC(C)C)C(=O)N[C@@H](CCC(=O)O)C(=O)N[C@@H](CC(N)=O)C(=O)NCC(N)=O)NC(=O)[C@H](CCC(N)=O)NC(=O)[C@H](Cc2c[nH]c3ccccc23)NC(=O)[C@H]([C@@H](C)O)NC(=O)[C@H](CCC(N)=O)NC1=O
2 | 0.1 to 1 µM |  | 0.1 to 1 µM | 0.1 to 1 µM | CC(=O)N[C@H](C(=O)N[C@@H](CCCNC(=N)N)C(=O)N[C@H](C(=O)N[C@@H](Cc1c[nH]c2ccccc12)C(=O)N[C@@H](CCC(N)=O)C(=O)N[C@@H](CS)C(=O)N[C@@H](Cc1ccc(O)cc1)C(=O)N[C@@H](Cc1c[nH]c2ccccc12)C(=O)N[C@@H](CCCNC(=N)N)C(=O)N[C@@H](CCCCN)C(=O)N[C@@H](Cc1ccccc1)C(=O)NCC(=O)NCCOCC(=O)N[C@H](CCCCN)C(N)=O)[C@@H](C)O)C(C)(C)S
3 | 0.1 to 1 µM |  | > 30 µM | 1 to 10 µM | CC(=O)N[C@@H](CS)C(=O)N[C@@H](C)C(=O)N[C@@H](CC(=O)O)C(=O)N[C@@H](Cc1c[nH]c2ccccc12)C(=O)N[C@H](C(=O)N[C@H](C(=O)N[C@@H](Cc1ccc(O)cc1)C(=O)N[C@@H](Cc1c[nH]c2ccccc12)C(=O)N[C@@H](Cc1cnc[nH]1)C(=O)N[C@H](C(=O)N[C@@H](Cc1ccccc1)C(=O)NCC(=O)NCCOCC(=O)N[C@H](CCCCN)C(N)=O)[C@@H](C)O)C(C)(C)S)C(C)C
4 | 0.01 to 0.025 µM |  | 0.025 to 0.1 µM | 0.025 to 0.1 µM | COc1ccc(C[C@H](NC(=O)[C@@H](NC(=O)[C@H](CCC(N)=O)NC(=O)[C@H](Cc2c[nH]c3ccccc23)NC(=O)[C@@H](NC(=O)[C@H](CCC(N)=O)NC(=O)[C@@H](NC(=O)CCCC(=O)O)C(C)(C)S)[C@@H](C)O)C(C)(C)S)C(=O)N[C@@H](Cc2ccc3ccccc3c2)C(=O)N[C@@](C)(CCCCN)C(=O)N[C@@H](CCCCNC(C)=O)C(=O)N[C@@H](CC(N)=O)C(=O)NCC(N)=O)cc1
5 |  | < 1 h | 0.1 to 1 µM | 0.1 to 1 µM | CC(=O)N[C@@H](CS)C(=O)N[C@@H](CCC(N)=O)C(=O)N[C@H](C(=O)N[C@@H](Cc1c[nH]c2ccccc12)C(=O)N[C@@H](CCC(N)=O)C(=O)N[C@H](C(=O)N[C@@H](Cc1ccc(O)cc1)C(=O)N[C@@H](Cc1c[nH]c2ccccc12)C(=O)N[C@@](C)(CC(C)C)C(=O)N[C@@H](CCC(=O)O)C(=O)N[C@@H](CC(N)=O)C(=O)NCC(N)=O)C(C)(C)S)[C@@H](C)O
6 | < 0.01 µM |  | 0.025 to 0.1 µM | 0.1 to 1 µM | COc1ccc(C[C@H](NC(=O)[C@@H](NC(=O)[C@H](CCC(N)=O)NC(=O)[C@H](Cc2c[nH]c3ccccc23)NC(=O)[C@@H](NC(=O)[C@H](CCC(N)=O)NC(=O)[C@@H](NC(=O)Cc2ccc(F)cc2)C(C)(C)S)[C@@H](C)O)C(C)(C)S)C(=O)N[C@@H](Cc2ccc3ccccc3c2)C(=O)N[C@@](C)(CCCCN)C(=O)N[C@@H](CCCCNC(C)=O)C(=O)N[C@@H](CC(N)=O)C(=O)NCC(N)=O)cc1
7 | < 0.01 µM |  | < 0.01 µM | 0.025 to 0.1 µM | CC(=O)NCCCC[C@H](NC(=O)[C@](C)(CCCCN)NC(=O)[C@H](Cc1ccc2ccccc2c1)NC(=O)[C@H](Cc1ccc(OCCN)cc1)NC(=O)[C@@H](NC(=O)[C@H](CCC(N)=O)NC(=O)[C@H](Cc1c[nH]c2ccccc12)NC(=O)[C@@H](NC(=O)[C@H](CCC(N)=O)NC(=O)[C@@H](NC(C)=O)C(C)(C)S)[C@@H](C)O)C(C)(C)S)C(=O)N[C@@H](CC(N)=O)C(=O)NCC(N)=O
8 | 0.002 µM |  |  | 0.024 µM | CC(=O)N[C@@H](CS)C(=O)N[C@@H](CO)C(=O)N[C@H](C(=O)N[C@@H](Cc1c[nH]c2ccccc12)C(=O)N[C@@H](CCC(N)=O)C(=O)N[C@@H](CS)C(=O)N[C@@H](Cc1ccc(O)cc1)C(=O)N[C@@H](Cc1c[nH]c2ccccc12)C(=O)N[C@@H](CC(C)C)C(=O)N[C@@H](CCCCN)C(=O)N[C@@H](Cc1cnc[nH]1)C(=O)NCC(=O)NCC(=O)N[C@@H](CCC(=O)O)C(N)=O)[C@@H](C)O (Ac-CSTWQCYWLKHGGE-NH2)
9 | 0.025 to 0.1 µM |  | 0.1 to 1 µM | 0.1 to 1 µM | CC(=O)N[C@H](C(=O)N[C@@H](CCCNC(=N)N)C(=O)N[C@H](C(=O)N[C@@H](Cc1c[nH]c2ccccc12)C(=O)N[C@@H](CCC(N)=O)C(=O)N[C@H](C(=O)N[C@@H](Cc1ccc(O)cc1)C(=O)N[C@@H](Cc1c[nH]c2ccccc12)C(=O)N[C@@H](CCCNC(=N)N)C(=O)N[C@@H](CCCCN)C(=O)N[C@@H](Cc1ccccc1)C(=O)NCC(=O)NCCOCC(=O)N[C@H](CCCCN)C(N)=O)C(C)(C)S)[C@@H](C)O)C(C)(C)S
10 | < 0.01 µM |  | < 0.01 µM | < 0.01 µM | CC(=O)NCCCC[C@](C)(NC(=O)[C@H](Cc1ccc2ccccc2c1)NC(=O)[C@H](Cc1ccc(OCCNC(C)=O)cc1)NC(=O)[C@@H]1CSCC[C@H](NC(C)=O)C(=O)N[C@@H](CCC(N)=O)C(=O)N[C@@H]([C@@H](C)O)C(=O)N[C@@H](Cc2c[nH]c3ccccc23)C(=O)N[C@@H](CCC(N)=O)C(=O)N1)C(=O)N[C@@H](CCC(=O)O)C(=O)N[C@@H](CC(N)=O)C(=O)N[C@@H](CCC(N)=O)C(N)=O (Ac-[Abu(4-yl)]QTWQC[AEF](Ac)[2Nal][αMeK](Ac)ENQ-NH2; thioether 1-6)
11 | 0.1 to 1 µM |  | 0.1 to 1 µM | 1 to 10 µM | CC(=O)N[C@H](C(=O)N[C@@H](C)C(=O)N[C@@H](CC(=O)O)C(=O)N[C@@H](Cc1c[nH]c2ccccc12)C(=O)N[C@H](C(=O)N[C@@H](CS)C(=O)N[C@@H](Cc1ccc(O)cc1)C(=O)N[C@@H](Cc1c[nH]c2ccccc12)C(=O)N[C@@H](Cc1cnc[nH]1)C(=O)N[C@H](C(=O)N[C@@H](Cc1ccccc1)C(=O)NCC(=O)NCCOCC(=O)N[C@H](CCCCN)C(N)=O)[C@@H](C)O)C(C)C)C(C)(C)S
12 | < 0.01 µM |  | < 0.01 µM | < 0.01 µM | CC(=O)NCCCC[C@](C)(NC(=O)[C@H](Cc1ccc2ccccc2c1)NC(=O)[C@H](Cc1ccc(OCCNC(C)=O)cc1)NC(=O)[C@@H]1CSCC[C@H](NC(C)=O)C(=O)N[C@@H](CCC(N)=O)C(=O)N[C@@H]([C@@H](C)O)C(=O)N[C@@H](Cc2c[nH]c3ccccc23)C(=O)N[C@@H](CCC(N)=O)C(=O)N1)C(=O)N[C@@H](CCC(=O)O)C(=O)N[C@@H](CC(N)=O)C(=O)N[C@@H](CC(N)=O)C(N)=O
13 | 0.008 µM |  |  | 0.08 µM | CC(=O)N[C@@H](CS)C(=O)N[C@@H](CCCNC(=N)N)C(=O)N[C@H](C(=O)N[C@@H](Cc1c[nH]c2ccccc12)C(=O)N[C@@H](CCC(N)=O)C(=O)N[C@@H](CS)C(=O)N[C@@H](Cc1ccc(O)cc1)C(=O)N[C@@H](Cc1c[nH]c2ccccc12)C(=O)N[C@@H](CCCNC(=N)N)C(=O)N[C@@H](CCC(=O)O)C(=O)N[C@@H](Cc1ccc(O)cc1)C(=O)NCC(=O)N[C@@H](C)C(=O)N[C@H](CCCCN)C(N)=O)[C@@H](C)O
14 | 0.01 to 0.025 µM |  | 0.025 to 0.1 µM | 0.025 to 0.1 µM | COc1ccc(C[C@H](NC(=O)[C@@H](NC(=O)[C@H](CCC(N)=O)NC(=O)[C@H](Cc2c[nH]c3ccccc23)NC(=O)[C@@H](NC(=O)[C@H](CCC(N)=O)NC(=O)[C@@H](NC(=O)CC(C)C)C(C)(C)S)[C@@H](C)O)C(C)(C)S)C(=O)N[C@@H](Cc2ccc3ccccc3c2)C(=O)N[C@@](C)(CCCCN)C(=O)N[C@@H](CCCCNC(C)=O)C(=O)N[C@@H](CC(N)=O)C(=O)NCC(N)=O)cc1
15 | < 0.01 µM |  | < 0.01 µM | 0.025 to 0.1 µM | CC(=O)N[C@H](C(=O)N[C@@H](CN)C(=O)N[C@H](C(=O)N[C@@H](Cc1c[nH]c2ccccc12)C(=O)N[C@@H](CCC(N)=O)C(=O)N[C@H](C(=O)N[C@@H](Cc1ccc(OCCN)cc1)C(=O)N[C@@H](Cc1ccc2ccccc2c1)C(=O)N[C@@](C)(CCCCN)C(=O)N[C@@H](CCC(=O)O)C(=O)N[C@@H](CC(N)=O)C(=O)NCC(N)=O)C(C)(C)S)[C@@H](C)O)C(C)(C)S
16 | 0.005 µM |  |  | 0.027 µM | CC(=O)N[C@@H](CS)C(=O)N[C@@H](CCC(N)=O)C(=O)N[C@H](C(=O)N[C@@H](Cc1c[nH]c2ccccc12)C(=O)N[C@@H](CCC(N)=O)C(=O)N[C@@H](CS)C(=O)N[C@@H](Cc1ccc(O)cc1)C(=O)N[C@@H](Cc1c[nH]c2ccccc12)C(=O)N[C@@](C)(CC(C)C)C(=O)N[C@@H](CCC(=O)O)C(=O)N[C@@H](CC(N)=O)C(=O)NCC(N)=O)[C@@H](C)O
17 | 0.01 to 0.025 µM |  | 0.025 to 0.1 µM | 0.025 to 0.1 µM | COc1ccc(C[C@H](NC(=O)[C@@H](NC(=O)[C@H](CCC(N)=O)NC(=O)[C@H](Cc2c[nH]c3ccccc23)NC(=O)[C@@H](NC(=O)[C@H](CCC(N)=O)NC(=O)[C@@H](NCN2C(=O)COCC2=O)C(C)(C)S)[C@@H](C)O)C(C)(C)S)C(=O)N[C@@H](Cc2ccc3ccccc3c2)C(=O)N[C@@](C)(CCCCN)C(=O)N[C@@H](CCCCNC(C)=O)C(=O)N[C@@H](CC(N)=O)C(=O)NCC(N)=O)cc1
